Assay results taken from BigSolDB 2.1.

C#C[C@]1(O)CC[C@H]2[C@@H]3CCC4=CC(=O)CC[C@@H]4[C@H]3C(=C)C[C@@]21CC
solubility (mole fraction)
Conditions	in DMF	in THF	in acetone	in ethanol	in ethyl acetate	in isopropanol	in methyl acetate	in n-butanol	in n-propanol	in water
273.15 K	0.0757	0.0739	0.012	0.0017	0.0189	0.00463	0.0104	0.00421	0.00452	1.38e-05
278.15 K	0.0792	0.0891	0.0133	0.00209	0.022	0.00545	0.0119	0.00514	0.00514	1.64e-05
283.15 K	0.0825	0.106	0.0148	0.00249	0.0249	0.00633	0.0135	0.00615	0.00585	1.92e-05
288.15 K	0.0865	0.125	0.0165	0.00293	0.0291	0.00731	0.0153	0.00742	0.00657	2.24e-05
293.15 K	0.0888	0.148	0.0184	0.00343	0.0338	0.00851	0.017	0.00904	0.00753	2.6e-05
298.15 K	0.0965	0.173	0.0198	0.00412	0.0383	0.00994	0.019	0.0109	0.00865	3.1e-05
303.15 K	0.0974	0.2	0.0224	0.00494	0.043	0.0115	0.0211	0.0126	0.00974	3.65e-05
308.15 K	0.101	0.223	0.0248	0.00593	0.0476	0.0132	0.0229	0.0148	0.0112	4.25e-05
313.15 K	0.105	0.263	0.0273	0.00695	0.0539	0.0154	0.025	0.0171	0.0124	4.91e-05
318.15 K	0.109	0.299	0.03	0.00817	0.059	0.0178	0.0271	0.0198	0.0142	5.62e-05
323.15 K	0.115	0.332	0.0335	0.00967	0.0648	0.0209	0.0294	0.0227	0.0159	6.37e-05
